Assay results as given in patent US8859464B2, “Nitrogen containing isethionic acid salts in field ready spray and tank mixes” (Huntsman Petrochemical L LC, priority 2009, dated 2014).

Tested on: target weed species
Experiment: Water conditioning efficacy in greenhouse evaluation of isopropylamine glyphosate spray tank solutions in hard water
Format: in vivo
Conditions: aqueous spray tank solutions of isopropylamine glyphosate, standard hard water, absence of any surfactant, compared with ammonium sulfate
Protocol: Isethionic acid (Example 1) and ten neutralization products of isethionic acid (Examples 2-11) were used to treat aqueous spray tank solutions of isopropylamine glyphosate in order to measure the water conditioning efficacy of isethionic acid and the other isethionates. Isethionic acid was neutralized with sodium (Examples 2, 6, and 7), ammonia (Examples 3-5) and tallow amine ethoxylates (Examples 8-11—SURFONIC® T-5 surfactant). These candidates were evaluated against the standard agricultural water conditioner, ammonium sulfate in an aqueous tank mix of isopropylamine glyphosate (Control Example). Specifically, the candidates were tested for their ability to condition water as a function of the suppression of water hardness inhibition of pesticides, such as glyphosate. All evaluations were run in the absence of any surfactant in standard hard water as defined by the World Health Organization standard hard waters. The evaluations were run in greenhouse conditions over a variety of plant species, including determining injury to crop species. The reported data was percent control of target weed species and percent injury to crop species. All evaluations (except for one industry standard) were conducted in the absence of any surfactant.

O=S(=O)(O)CCO [isethionic acid, Isethionic Acid] was tested, and the “water conditioning efficacy (suppression of water hardness inhibition of glyphosate)” value was “functioned at a level comparable to that of the agricultural industry standard ammonium sulfate”.
